Experimental data reported in patent publication US20220031680A1, “Donecopride As Neuroprotective Agent In the Treatment of Neurodegenerative Diseases” (priority 2018, published 2022).

Legend:
5×FAD mice = experiment: Novel object recognition test in 5×FAD mice; assay type: in vivo, mouse; conditions: 1 mg/kg twice a week for 3 months; 24 h inter-session interval
Description: Animal experiments were carried out in accordance with the Directive by the Council of the European Communities of Nov. 24, 1986 (86/609/EEC). All efforts were made to minimize animal suffering and to reduce the number of mice used. The generation of 5×FAD mice was described in Oakley et al. (2006) J. Neurosci. 26:10129-10140. These transgenic mice overexpress both human APP (695) harboring the Swedish (K670N, M671L), Florida (1716V) and London (V7171) familial AD (FAD) mutations and human Presenilin 1 (PS1) harboring the two FAD mutations M146L and L286V. Expression of both transgenes is regulated by neuronal-specific elements of the mouse Thy1 promoter. The 5×FAD strain (B6/SJL genetic background) was maintained by crossing hemizygous transgenic mice with B6/SJL F1 breeders. The 5×FAD strain (C57BL/6J genetic background) was maintained by crossing hemizygous transgenic mice with C57BL/6J F1 breeders. All animals were genotyped by PCR using tail genomic DNA. Transgenic and WT mice were bred in our animal facility, had access to food and water ad libitum and were housed under a 12 h light-dark cycle at 22-24° C. Female 5×FAD mice were used in this study. For each experiment, the age of mice is indicated in months (with a two-week range).
Compounds were resuspended in DMSO (37.5 μg/μl, stored at −20° C.) and freshly diluted 1:250 in 0.9% NaCl prior administration. Vehicle solution (0.9% NaCl, 0.4% DMSO) was used as control.
5×FAD mice received chronic treatments with drugs or vehicle according to 2 different protocols. In each experiment, drugs or vehicle solution were administered i.p. twice a week (1 mg/kg). […]
The cognitive performance of mice was tested using the novel object recognition (NOR) test (Bevins and Besheer (2006) Nat. Protoc. 1:1306-1311). […] The whole experiment was video-recorded and object exploration [time spent by the mouse nose in contact with the object or by sniffing it at a distance s 1 cm] was blindly measured. […] A discrimination index was also calculated ([novel−familiar]/[familiar+novel]). […]

Aβ42 = Aβ42 concentration in cerebrospinal fluid of 5×FAD mice; assay type: in vivo, mouse; conditions: 1 mg/kg twice a week for 3 months; compared to controls
Description: (§1) 5×FAD mice received chronic treatments with drugs or vehicle according to 2 different protocols. In each experiment, drugs or vehicle solution were administered i.p. twice a week (1 mg/kg). In “Protocol 1”, mice (n=6-7 mice per group) were treated with compounds for two months, from 2 to 4 months of age. In “Protocol 2”, mice (n=7) were treated with compounds for three months, from 1 month to 4 months of age. At the end of each protocol, mice were anesthetized with a mixture of 100 mg/kg ketamine and 10 mg/kg xylazine in saline solution and perfused transcardially with PBS. Brains were quickly isolated on ice, the olfactory bulbs and cerebellum removed and the two hemispheres divided. One hemisphere was frozen on dry ice and stored at −80° C. for biochemical analysis, while the other was post-fixed in 4% PFA for immunohistochemistry (IHC).
Mice were anesthetized and mounted onto a stereotaxic instrument. The neck skin was cut and subcutaneous tissue and muscles separated with the help of micro-retractors (Fine Science Tools, Heidelberg, Germany). Mice were then laid down so that the head formed an angle of about 135° with the body (Liu and Duff (2008) J. Vis. Exp. 10:960). A capillary tube (Borosilicate glass, B100-75-10, Sutter Instruments, Novato, Calif., USA) was used to punch the dura mater of the cisterna magna. CSF was collected by capillary action and transferred to 0.5 mL microtubes, immediately frozen on dry ice and stored at −80° C. until use. Once thawed, samples were heated at 60° C. for 5 min as described in the international application WO 2008/009868 and analyzed without further freezing-thawing cycles.
ELISA kits from IBL International (Hamburg, Germany) for the dosage of Aβ40 (human amyloid β (1-40) assay kit, #27713) or Aβ42 (human amyloid β (1-42) assay kit, #27719) were used according to the manufacturer's instructions. Reactions were read at 620 nm and 450 nm using an Infinite 2000 luminescence counter. The obtained values were normalized to the protein concentration of each sample, measured using a BCA protein assay (Sigma-Aldrich). […]

amyloid plaques = experiment: Number of amyloid plaques (thioflavin T) in 5×FAD mouse brain; assay type: in vivo; conditions: 1 mg/kg twice a week for 3 months
Description: as §1
(§2) Thirty-micrometer-thick sections were cut using a vibratome (Microm HM 650V, Thermo Scientific, Saint Herblain, France) and stored in cryoprotectant medium at −20° C. For the labeling of amyloid plaques, free-floating tissue sections of frontal cortex, hippocampus and entorhinal cortex (coordinates from the bregma: frontal cortex=1.98 mm, hippocampus=−1.94 mm, entorhinal cortex=−3.08 mm) were extensively washed in PBS and then incubated in blocking solution (PBS; 3% BSA; 0.1% Triton X-100) for 1 h. Sections were stained with Hoechst dye (1:1000, Life Technologies, Saint Aubin, France) for 15 minutes to detect cell nuclei and then with freshly prepared thioflavin T solution (#T3516-5G, Sigma-Aldrich) (final concentration: 0.01 mg/ml in blocking buffer) for 15 minutes. After washing in 70% ethanol for 5 minutes, samples were mounted on poly-lysine slides with coverslips. For GFAP (glial fibrillary acidic protein) staining, free-floating brain sections were blocked as before and incubated with polyclonal rabbit anti-GFAP (1:1000, Z0334, Dako, Les Ullis, France) at 4° C. overnight. After thioflavin T staining and washing with 70% ethanol, the secondary Alexafluor 594 goat anti-rabbit antibody (1:1000, A11012, Life Technologies) was added for 2 h. PBS washes and mounting were performed as described before.
(§3) Images were acquired with an Axiolmager Z1 microscope (Carl Zeiss S.A.S., Marly le Roi, France). Analysis of thioflavin T staining was performed blindly and data are presented as the mean number of particles per mm^2 in two to three tissue sections from the same brain area/animal (Image J software). GFAP expression was quantified using Image J software and results are expressed as area fractions.
(§4) 28 female 5×FAD mice (C57BL/6J genetic background) were used in this study. Mice received vehicle or compounds (1 mg/kg) i.p., twice a week for three months, from 1 to 4 months of age.
Anti-amyloid effect. Frontal cortex, hippocampus and entorhinal cortex were analyzed as representative areas of 5×FAD mouse brain (frontal, median and caudal sections) and of human brain regions that are affected early by Alzheimer's disease and are highly enriched in amyloid deposits.

GFAP = experiment: Astrogliosis (GFAP staining) in 5×FAD mouse brain; assay type: in vivo; conditions: 1 mg/kg twice a week for 3 months
Description: as §1, §2, §3, §4

CCCCN1CCC(CCC(=O)c2cc(Cl)c(N)cc2OC)CC1 [RS 67333, 1-(4-amino-5-chloro-2-methoxy-phenyl)-3-(1-butyl-4-piperidinyl)-1-propanone, reference compound]
recognition memory, exploration of novel vs familiar object (NOR) (5×FAD mice): reverses cognitive impairment
Aβ42 concentration in cerebrospinal fluid (CSF) (Aβ42): not significantly different
Amyloid plaque number in hippocampus (amyloid plaques; compared to controls): not significantly different
reduction of the number of amyloid plaques in entorhinal cortex (amyloid plaques; compared to vehicle): No significant effect
reduction of the number of amyloid plaques in frontal cortex (amyloid plaques; compared to vehicle): No significant effect
GFAP staining in frontal cortex or hippocampus (GFAP; compared to controls): not significantly different
decrease of GFAP staining in entorhinal brain slices (GFAP; compared to vehicle): 62±6%
